Assay results taken from paper PMC5491903, “The Selective Phosphoinoside-3-Kinase p110δ Inhibitor IPI-3063 Potently Suppresses B Cell Survival, Proliferation, and Differentiation” (Frontiers in Immunology, 2017).

Legend:
Assay type in all cases: cell-based
mouse B cells = test: mouse B cell survival (B220+7AAD- viability, 48 h)
Procedure: To assess survival, purified mouse B cells were incubated for 48 h in either B-cell activating factor (BAFF) or interleukin-4 (IL-4) with various concentrations of IPI-3063 and IPI-443. […] The selective PI3K inhibitor IPI-3063 was very potent, achieving a significant decrease in B cell survival when present at 10 nM.
Total splenocytes were pretreated with inhibitors as indicated, then cultured with 10 ng/mL IL-4 (A) or 60 ng/mL of BAFF (B) for 48 h. Concentrations used were 1 nM, 10 nM, 100 nM, 1 µM for IPI-443 and 1, 10, 30, 100 nM for IPI-3063. AS252424 concentrations were 100 nM, 300 nM, and 1 µM, and GDC-0941 was at 500 nM. % viability was calculated by measuring % of B220^+7AAD^− cells. Samples were collected by time. (*P < 0.05, **P < 0.001, ***P < 0.0001 one-way ANOVA with Newman–Keuls multiple comparison test).

[1] = system: phosphorylation of AKT at serine 473 in mouse primary B cells; test: p-AKT (S473) western blot in αIgM + IL-4 stimulated mouse B cells
Procedure: IPI-3063 is a p110δ selective compound with an IC50 = 0.1 nM in p110δ-specific cell-based assays and cellular IC50 values for the other class I PI3K isoforms are at least 1,000-fold higher (Table 2) ([11]). […] To test the effects of p110γ inhibition, we used AS-252424 compound with a biochemical IC50 = 30 nM for p110γ ([17]). We assessed the effects of both IPI-3063 and IPI-443 on PI3K activity in mouse primary B cells stimulated with αIgM + IL-4, by evaluating phosphorylation of AKT at the serine 473 residue (Figures 1A,C) as well as the phosphorylation of ERK1/2 on Thr202/Tyr204 residues (Figures 1B,C). Cells were treated with a pan-PI3K inhibitor GDC-0941 or with various concentrations of IPI-3063 or IPI-443, or DMSO (0.1%) as the diluent control. Separate cultures were treated with the p110γ inhibitor AS-252424 or its diluent control (0.1% EtOH). MK-2206, an AKT inhibitor, which also reduces AKT S473 phosphorylation, was also used as a control to show ERK1/2 phosphorylation is independent of AKT activity. […]
Analysis was performed on western blots using ImageJ to measure mean fluorescence intensities of each band. Phospho-AKT S473 and phospho-ERK1/2 signal was normalized with actin measurements and fold change was calculated using the stimulated/no drug control.

human B cells = test: human B cell proliferation (CFSE); details: CD40L + anti-human IgM/IgG + hIL-2 + hIL-21, 120 h
Procedure: We also tested the effects of these inhibitors on human B cell proliferation stimulated with human CD40L + anti-human IgM/IgG + hIL-2 + hIL-21. We stimulated CFSE-stained human B cells for 120 h in the presence of GDC-0941, IPI-3063, IPI-443, or AS-252424 at various concentrations. […] IPI-443 caused a dose-dependent decrease in proliferation, whereas AS-252424 had no effect.
(A–C) Purified human B cells were pretreated with inhibitors for 30 min, then stimulated with human CD40L + anti-human IgM/IgG + human IL-2 + human IL-21 for 120 h. Concentrations used were 1 nM, 10 nM, 100 nM, and 1 µM for IPI-443, and 0.1, 1, 10, and 100 nM for IPI-3063. AS252424 concentrations were 100 nM, 300 nM, and 1 µM, and GDC-0941 was at 500 nM. Total numbers and percent divided were determined by the number of CD19^+7AAD^−CFSE^lo cells. Samples were collected by time (*P < 0.05, **P < 0.001, ***P < 0.0001 one-way ANOVA with Newman–Keuls multiple comparison test).
Peripheral blood from normal volunteers was obtained through an Institutional Review Board-approved protocol. Peripheral blood mononuclear cells (PBMCs) were first purified from blood by density gradient centrifugation using Ficoll-Paque. […] B-cell purity was increased from 4% to >70% as measured by FACS analysis (FACSCalibur and CellQuest software; BD Biosciences) using anti-CD19 PE conjugated antibody (eBioscience). […]

Compound	effect on survival (mouse B cells; BAFF or IL-4, 48 h)	effect on p-AKT signaling ([1]; αIgM + IL-4, 100 nM, 300 nM, 1 µM)	effect on proliferation (human B cells)	concentration with significant decrease in B cell survival (mouse B cells; BAFF, 48 h)	concentration with significant reduction of p-AKT ([1]; αIgM + IL-4, 30 min pretreatment, 1 h stimulation)	concentration that significantly reduces proliferation (human B cells)
O=C1NC(=O)/C(=C/c2ccc(-c3ccc(F)cc3O)o2)S1 [AS-252424, reference compound]	no significant effect	no significant effect	no effect	–	–	–
CC(C)n1c([C@H](C)Nc2ncnc(N)c2C#N)cc2cccc(-c3ccc(=O)n(C)c3)c2c1=O [IPI-3063]	–	–	–	10 nM	1 nM	≥ 1 nM
